Experiments:
[1] = system: capillary circulation of the skin; assay: Laser Doppler circulation study in five human subjects, Example 7; format: in vivo; conditions: positive control formulation containing 0.1% methyl nicotinate, vs untreated skin
Text: This example illustrates delivery of nitric oxide formulations to five human subjects, using procedures and formulations similar to those discussed in Example 5. Each person served as their own control for the testing. A Moor Instruments Laser Doppler was used to determine circulation. […] The formulations used produce positive, almost immediate results when applied to the skin which, in these studies, was manifested by vasodilatation of the cutaneous vascular system.
For each subject, the following creams were applied: a negative control formulation (containing no NO), 0.010 gram of a 10,000 ppm NO formulation, 0.020 gram of a 10,000 ppm NO formulation, and a positive control formulation containing 0.1% methyl nicotinate. The formulations were prepared using procedures similar to those discussed in Example 1.

[2] = system: micro-capillary blood flow to skin; assay: Laser Doppler capillary blood flow study, Example 5 (closed Hilltop chamber on forearm); format: in vivo, humans; conditions: applied to the skin at 1/10% in alcohol
Description: This example illustrates delivery of nitric oxide formulations similar to those discussed herein in humans. In these studies, laser Doppler studies were performed on three human female subjects. […] The formulations used produce positive, almost immediate results when applied to the skin which, in these studies, was manifested by vasodilatation of the cutaneous vascular system.
While nitric oxide has many physiological effects, the purpose of these studies was to measure physiological effects that would be relatively easy to determine, and which would be noninvasive. […] Nitric oxide is capable of […] the capillary bed, and thus, laser Doppler was selected.
The formulation used in these studies contained nitric oxide dispersed in a lipid matrix. […] This provided a stable measuring device as determined by multiple normal evaluations of the capillary blood flow without treatment of nitric oxide.
A known positive control, methyl nicotinate, was applied to the skin at a concentration of 1/10% in alcohol. […] The laser Doppler device accurately measured these parameters.
In these studies, the participants were healthy females aged 30 to 55 years. They were in good health as determined by the medical history and were not taking any prescription medications. All study participants read and signed the informed consent statement prior to any study procedures being performed. […]

SMILES: COC(=O)c1cccnc1 [methyl nicotinate]
- vasodilatation [1]: vasodilatation was observed
- laser Doppler response of positive control [2]: rapid response typical of the vasodilator

Reference: patent US10034898B2, “Methods and systems for treatment of inflammatory diseases with nitric oxide” (priority 2012, dated 2018)
